Data from article PMC6954543, “A window-of-opportunity trial of the CXCR1/2 inhibitor reparixin in operable HER-2-negative breast cancer” (Breast Cancer Research : BCR, 2020).

Assays:
[1] = system: CD31; test: CD31 staining of core biopsies by IHC; type: in vivo, human; conditions: day 21 (16/20 at baseline)
Experimental: (§1) All IHC analyses and scoring for extent (0 to 4) and intensity (0 to 3) were performed at the Houston Memorial Hermann Pathology laboratory as previously described. After antigen retrieval (Tris-Cl, pH 9.0), paraffin-embedded sections of sample tumors were incubated for 1 h at room temperature with the following antibodies: anti-human CXCR1 (rabbit polyclonal to CXCR1 - C-terminal, ab137351; Abcam, Cambridge, MA), anti-human CD31 (clone JC70A, #IS610; Dako, Glostrup, Denmark), anti-human p62 (clone SQSTM1/p62, # 5114; Cell Signaling), anti-human AKT (rabbit polyclonal to pan-AKT, # ab8805; Abcam), anti-human FAK (clone pY861, #44-626G; Invitrogen, Qiagen, Carlsbad, CA), anti-human phospho-AKT (clone Ser473 (D9E), #4060; Cell Signaling), anti-human phospho-FAK (clone Y397, #ab4803; Abcam), and anti-human LC3B (clone D11, #3868; Cell Signaling). For the evaluation of extent, the following semi-quantitative score method (0 to 4) was used: 0, no positive cells; 1, 1–25%; 2, 26–50%; 3, 51–75%; and 4, 76–100%.

[2] = system: ALDH1, CD24 and CD44 transcripts; test: CSC markers in core biopsies by RT-PCR; type: in vivo, human; conditions: 14 patients
Experimental: Core biopsy samples were placed in RNAlater, suspended in 700 μL of TRIzol® LS Reagent (Invitrogen) and homogenized using Bullet Blender (Next Advance Inc.). Next, RNA was extracted using the miRNeasy mini kit (Qiagen) and processed with the QIACube (Qiagen) automated low-throughput sample prep system. Thereafter, the isolated RNAs were reverse transcribed to cDNA (High Capacity cDNA Reverse Transcription Kit, ABI) and subsequently underwent quantitative RT-PCR (qRT-PCR) using 7900HT Fast Real-Time PCR System (ABI) to detect transcripts of markers associated with CSC (ALDH1, CD44, CD24, Akt, and PI3K), EMT (TWIST1, FOXC2, SNAIL1, SNAIL2, TG2, and ZEB1), epithelial cells (KRT19 and EpCAM), and leukocytes (CD45). We used average delta Ct (dCT) < 2 as a cutoff to determine the relative gene expression level. Since normal tissue was not available to act as the normalizer, we used GAPDH as the endogenous control (dCT = CTtarget − CTendogenous control).

[3] = system: CXCR1/2+ cells; parameters: method as in PMID 22996693; conditions: preclinical models; cited from earlier work
[4] = system: CD18+ PMNs; test: Adhesion molecule expression on peripheral blood PMNs by flow cytometry; type: in vivo, human; conditions: after 21 days of treatment vs baseline; p < 0.05
Experimental: The expression of adhesion molecules (CD11b, CD18, and CD66b) on PMNs was investigated. Typically, 100 µL of whole blood were incubated with 10nM CXCL8 for 10 minutes at room temperature to upregulate the expression of adhesion molecules. Untreated whole blood samples were included as control. We measured the percentage of PMNs that expressed CD11b, CD18, and CD66b as well as the Mean Fluorescence of Intensity (MFI) of each adhesion molecule as a measure of expression density by flow cytometry.

[5] = system: P-AKT; test: P-AKT staining of core biopsies by IHC; type: in vivo, human; conditions: day 21 (16/20 at baseline)
Experimental: as §1

[6] = system: CXCR1; test: CXCR1 expression on tumor cells by IHC; type: in vivo, human; conditions: largest proportion at levels 4 and 3 at baseline; level 3 and 2 or lower at day 21
Experimental: as §1

[7] = system: CXCR1+ cells; test: CXCR1+ cell evaluation in core biopsy samples by flow cytometry; type: in vivo, human
Text: Patients underwent core biopsies at baseline (day − 14 to 0) and at the completion of therapy (day 21). Three to five ≥ 18-gage needle biopsies were taken to measure the changes in CSC populations and pathway markers. If not performed at the completion of treatment, a core biopsy was taken on the day of surgery by the same technique. A sample of the surgically resected tumor tissue was also taken. Additional analyses were directed to determine CXCR1 (PerCP/Cy5.5 mouse anti-human CD181 (CXCR1; BioLegend, San Diego, CA) and cell lineages using the following antibodies: APC mouse anti-human CD44 (BD Bioscience, San Jose, CA; catalog #559942), PE-Cy7 mouse anti-human CD24 (#561646), PE mouse anti-human CD2 (#555327), PE mouse anti-human CD31 (#555446), PE mouse anti-human CD3 (#555333), PE mouse anti-human CD18 (#555924), PE mouse anti-human CD16 (#555407), PE mouse anti-human CD19 (#555413), and PE mouse anti-human CD45 (#555483).

[8] = system: metastatic HER-2-negative BC; parameters: method as in PMID 28539464; conditions: in combination with weekly paclitaxel, cited from earlier work
[9] = system: monocytes and PMNs; test: Intracellular cytokine production by monocytes and PMNs by flow cytometry; type: in vivo, human; conditions: without or with activation by LPS and/or CXCL8; data not shown
Experimental: Intracellular cytokine production by peripheral blood monocytes and PMNs were assessed using a modification of previously published procedure. Briefly, monocytes and PMNs in whole blood were activated with CXCL8 (10nM), LPS ([…]), and LPS+CXCL8 for 2 hours at 37 °C before the addition of Brefeldin A (BFA) for another 3 hours to block the transportation of the intracellular cytokines from the Golgi to the cell surface. Thereafter, red blood cells were lysed with 1×FACSTM Lysing Solution (BD Biosciences) and the membrane of activated cells permeabilized with 1×FACSTM Perm 2 solution (BD Biosciences). Next, the activated monocytes and PMNs were stained with fluorochrome-conjugated specific antibodies to IL-1β, TNF-α, CXCL8, and IL-6 before the samples were analyzed by flow cytometry. The percentages of monocytes and PMNs that produced IL-1β, TNF-α, CXCL8, and IL-6 were recorded.

[10] = system: P62; test: p62 expression on tumor cells by IHC; type: in vivo, human; conditions: IHC score 0 to 4
Experimental: as §1

[11] = system: human BC cell lines and xenografts; parameters: method as in PMID 20051626; conditions: single agent and in combination with chemotherapy; cited from earlier work

CC(C)Cc1ccc([C@@H](C)C(=O)NS(C)(=O)=O)cc1 [reparixin]
patients with value of 0 for CD31, extent and intensity [1]: 11/15 | patients negative for CSC at both baseline and day 21 [2]: 6 patients | patients with CSC (transcripts for CD44 but not CD24) at both baseline and day 21 [2]: Five | ALDH1 transcripts at day 21 ([2]; 1/14 expressed ALDH1 at baseline): all patients were negative | recruitment of CXCR1/2+ cells from the bloodstream to visceral sites [3]: reduce | percentage of CD18+ PMNs following in vitro stimulation with CXCL8 [4]: decreased | patients with value of 0 for P-AKT, extent and intensity [5]: 11/15 | CXCR1 positivity, extent and intensity, change at day 21 [6]: decrease | patients with CXCR1+ tumor cells decreased at day 21 [7]: 7/13 | patients with all viable CXCR1+ cells reduced at day 21 vs baseline [7]: 6/13 | patients with parallel decrease in both CXCR1+ cell populations [7]: 4/13 | long-lasting CR ([8]; 27 evaluable patients): 2 | response rate ([8]; 27 evaluable patients): 30% | gastrointestinal disorders, share of all TEAEs ([8]; all grade ≤ 2): 39% | Grade 3 treatment-related TEAE, share of all reports [8]: 2.7% | production of inflammatory cytokines (CXCL8, IL-6, TNF-α, IL-1β) by monocytes and PMNs [9]: No statistically significant difference | P62 extent (percentage of positive cells), change baseline to day 21 [10]: decreased from level 4 to level 3 or lower in the majority of patients | metastatic spread of human BC cells and CSC (ALDH+ and CD24−/CD44+) content [11]: reduced
